The source of these data is paper PMC3984256, “A PCNA-Derived Cell Permeable Peptide Selectively Inhibits Neuroblastoma Cell Growth” (PLoS ONE, 2014).

For orientation: IC50 means the concentration that inhibits the measured activity by half. Read a low IC50 as inhibition by little substance.

Test [1] deals with SV40 T-antigen-dependent DNA replication, nuclear extracts from SK-N-BE(2)c cells. Kind of test: SV40 T-antigen-dependent DNA replication assay in vitro. The format is biochemical. The note with it: nuclear extracts incubated with peptide 20 min; 32P dCTP incorporation, normalized to PBS, triplicates. As for the experimental part: The assay was performed essentially as described, except that nuclear extracts from SK-N-BE(2)c cells were used in the assay.
Figure 3 Inhibition of DNA replication and induction of S-phase arrest and apoptosis by R9-caPep. a) SK-N-BE(2)c cells were pulsed in 10 µM of BrdU for 30 min after being pre-treated with R9-caPep or R9-srbPep for 7.5 h. The relative abundances of BrdU-positive cells in triplicates were averaged and graphed plus/minus standard deviations. b) Nuclear extracts from SK-N-BE(2)c cells were incubated with the indicated concentrations of R9-caPep (grey bars) or R9-srbPep (black bars) for 20 min. SV40 T-antigen was then added to the nuclear extracts along with premixed reaction buffer containing ^32P dCTP. […] The polymerized radioactivity was measured by a scintillation counter. The T-antigen-dependent incorporation of ^32P dCTP was calculated by subtracting T-antigen-independent radioactivity from the total radioactivity and was normalized to the T-antigen-dependent radioactivity in PBS-treated samples. Triplicates of normalized T-antigen-dependent radioactivity for each treatment condition were averaged and graphed plus/minus standard deviations. c) SK-N-BE(2)c and non-malignant 7SM0032 cells were fixed and stained with propidium iodide (PI) after being treated with the indicated concentrations of R9-caPeptide for 48 h. […] Cells were fixed and analyzed by a TUNEL assay. […]

Test [2] deals with human peripheral blood mononuclear cells (PBMC). It is filed as cell-based. The note with it: 72 h. As for the experimental part: (§1) The human NB cell lines, SK-N-DZ, SK-N-BE(2)c, SK-N-AS, SK-N-SH, and SK-N-FI were obtained from the American Type Culture Collection (Rockville, MD). Cells were maintained in DMEM with 10% fetal bovine serum (FBS), 100 units/ml penicillin, and 100 µg/ml streptomycin in the presence of 5% CO2 at 37°C. Human PBMCs from a healthy donor were purchased from Sanguine BioSciences (Valencia, CA) and grown in RPMI1640 with10% FBS, 100 units/ml penicillin, 100 µg/ml streptomycin, and 10 ng/ml IL-2 in the presence of 5% CO2 at 37°C. Human embryonic progenitor cell line 7SM0032 was acquired from Millipore (Billerica, MA) and grown in the hEPM-1 Media Kit purchased from the same company.
(§2) To measure cell growth, cells were seeded at 3×10^4/ml. After being allowed to attach overnight, cells were treated with various concentrations of the peptides for 72 h. Cell growth was measured by the CellTitor-Glo assay (Promega, Madison, WI) according to manufacturer's instruction. To measure apoptosis, cells were seeded at 1×10^5/ml onto a chamber slide. Once attached, cells were treated with the peptides for 48 h. Cells were fixed and analyzed by a TUNEL assay using the TMR red in situ cell death detection kit (Roche Diagnostics, Indianapolis, IN).

The test system of test [3] is human neural crest stem cells (7SM0032). The format is cell-based. The note with it: 72 h. As for the experimental part:
as §1, §2

Test [4] concerns breast, lung, and pancreatic cancer cell lines. The experiment in a line: Toxicity to breast, lung, and pancreatic cancer cell lines (data not shown). It is filed as cell-based. As to conditions: in comparison with non-malignant cell lines of respective tissue origins.

Where a SMILES comes first, the peptide text is derived from it. [ ]: non-standard residue; d: D form. A value given as a limit tells only on which side of the number the result lay.

Take `CC[C@H](C)[C@H](NC(=O)CNC(=O)[C@H](CC(C)C)NC(=O)[C@H](CS)NC(=O)[C@H](CS)NC(=O)[C@@H](CCCNC(=N)N)NC(=O)[C@@H](CCCNC(=N)N)NC(=O)[C@@H](CCCNC(=N)N)NC(=O)[C@@H](CCCNC(=N)N)NC(=O)[C@@H](CCCNC(=N)N)NC(=O)[C@@H](CCCNC(=N)N)NC(=O)[C@@H](CCCNC(=N)N)NC(=O)[C@@H](CCCNC(=N)N)NC(=O)[C@H](N)CCCNC(=N)N)C(=O)N1CCC[C@H]1C(=O)N[C@@H](CCC(=O)O)C(=O)N[C@@H](CCC(N)=O)C(=O)N[C@@H](CCC(=O)O)C(=O)N[C@@H](Cc1ccc(O)cc1)C(=O)O` [R9-caPep] (H-[dR][dR][dR][dR][dR][dR][dR][dR][dR]CCLGIPEQEY-OH; N-terminus and C-terminus assumed): in test [1], the “SV40 T-antigen-dependent DNA replication” value was “inhibited SV40 T-antigen-dependent DNA replication in vitro”. For the same compound, the IC50 in test [2] is 98 µM; in test [3], > 100 µM. Besides, in test [4], the “toxicity to breast, lung, and pancreatic cancer cell lines vs non-malignant lines” value is “selectively toxic to breast, lung, and pancreatic cancer cell lines”.
